According to US10004701B2, “Methods and compositions for treating infection” (UNIVERSITY OF ROCHESTER, priority 2012, dated 2018):
Counter-ions that a name gives are not always drawn. Like-named read-outs stand apart in the source and are kept apart here.

Experiments:
Assay in all cases: AK assay 384-well format, Prestwick library screening
[1] = tested on: E. faecium; assay type: cell-based, Enterococcus faecium; settings: 50 μM final drug concentration; for fold induction at 50 µM: Enterococcus faecium, 3 h
[2] = tested on: S. aureus strain USA300-0114; assay type: cell-based, Staphylococcus aureus; settings: 50 μM final drug concentration; for fold induction at 50 µM: Staphylococcus aureus, USA300, 3 h
[3] = tested on: K. pneumoniae; assay type: cell-based, Klebsiella pneumoniae; settings: 50 μM final drug concentration; for fold induction at 50 µM: Klebsiella pneumoniae, 3 h
[4] = tested on: A. baumannii strain 98-37-09; assay type: cell-based, Acinetobacter baumannii; settings: 50 μM final drug concentration; for fold induction at 50 µM: Acinetobacter baumannii, 983709, 3 h
[5] = tested on: P. aeruginosa; assay type: cell-based, Pseudomonas aeruginosa; settings: 50 μM final drug concentration; for fold induction at 50 µM: Pseudomonas aeruginosa, 3 h
[6] = tested on: E. cloacae; assay type: cell-based, Enterobacter cloacae; settings: 50 μM final drug concentration; for fold induction at 50 µM: Enterobacter cloacae, 3 h
[7] = tested on: E. coli; assay type: cell-based, Escherichia coli; settings: 50 μM final drug concentration; for fold induction at 50 µM: Escherichia coli, 3 h
[8] = planktonic E. faecium, 384-well, cutoff for positive-scoring molecules 3-fold increase, read-out: AK-based Prestwick Library Screening Results: E. faecium (increase in extracellular AK activity)
[9] = planktonic S. aureus, 384-well, cutoff for positive-scoring molecules 3-fold increase, read-out: AK-based Prestwick Library Screening Results: S. aureus (increase in extracellular AK activity)
[10] = planktonic K. pneumoniae, 384-well, cutoff for positive-scoring molecules 3-fold increase, read-out: AK-based Prestwick Library Screening Results: K. pneumoniae (increase in extracellular AK activity)
[11] = planktonic A. baumannii, 384-well, cutoff for positive-scoring molecules 3-fold increase, read-out: AK-based Prestwick Library Screening Results: A. baumannii (increase in extracellular AK activity)
[12] = planktonic P. aeruginosa, 384-well, cutoff for positive-scoring molecules 3-fold increase, read-out: AK-based Prestwick Library Screening Results: P. aeruginosa (increase in extracellular AK activity)
[13] = planktonic E. cloacae, 384-well, cutoff for positive-scoring molecules 3-fold increase, read-out: AK-based Prestwick Library Screening Results: E. cloacae (increase in extracellular AK activity)
[14] = planktonic E. coli, 384-well, cutoff for positive-scoring molecules 3-fold increase, read-out: AK-based Prestwick Library Screening Results: E. coli (increase in extracellular AK activity)
[15] = planktonic, cutoff for positive-scoring molecules 3-fold increase, read-out: AK-based Prestwick Library Screening Results, E. faecium (fold increase in extracellular AK activity)
[16] = planktonic, cutoff for positive-scoring molecules 3-fold increase, read-out: AK-based Prestwick Library Screening Results, S. aureus (fold increase in extracellular AK activity)
[17] = planktonic, cutoff for positive-scoring molecules 3-fold increase, read-out: AK-based Prestwick Library Screening Results, K. pneumoniae (fold increase in extracellular AK activity)
[18] = planktonic, cutoff for positive-scoring molecules 3-fold increase, read-out: AK-based Prestwick Library Screening Results, A. baumannii (fold increase in extracellular AK activity)
[19] = planktonic, cutoff for positive-scoring molecules 3-fold increase, read-out: AK-based Prestwick Library Screening Results, P. aeruginosa (fold increase in extracellular AK activity)
[20] = planktonic, cutoff for positive-scoring molecules 3-fold increase, read-out: AK-based Prestwick Library Screening Results, E. cloacae (fold increase in extracellular AK activity)
[21] = planktonic, cutoff for positive-scoring molecules 3-fold increase, read-out: AK-based Prestwick Library Screening Results, E. coli (fold increase in extracellular AK activity)
[22] = planktonic E. faecium, positive cutoff 3-fold increase, read-out: AK-based Prestwick library screening result, E. faecium (fold increase in extracellular AK activity)
[23] = planktonic S. aureus, positive cutoff 3-fold increase, read-out: AK-based Prestwick library screening result, S. aureus (fold increase in extracellular AK activity)
[24] = planktonic K. pneumoniae, positive cutoff 3-fold increase, read-out: AK-based Prestwick library screening result, K. pneumoniae (fold increase in extracellular AK activity)
[25] = planktonic A. baumannii, positive cutoff 3-fold increase, read-out: AK-based Prestwick library screening result, A. baumannii (fold increase in extracellular AK activity)
[26] = planktonic P. aeruginosa, positive cutoff 3-fold increase, read-out: AK-based Prestwick library screening result, P. aeruginosa (fold increase in extracellular AK activity)
[27] = planktonic E. cloacae, positive cutoff 3-fold increase, read-out: AK-based Prestwick library screening result, E. cloacae (fold increase in extracellular AK activity)
[28] = planktonic E. coli, positive cutoff 3-fold increase, read-out: AK-based Prestwick library screening result, E. coli (fold increase in extracellular AK activity)
[29] = planktonic, cutoff for positive-scoring molecules 3-fold increase
[30] = planktonic, cutoff for positive 3-fold increase

## Cl.NCC(O)c1ccc(O)cc1 (racemic) [(+,−)-Octopamine hydrochloride]
[1]; […]
  AK-based Prestwick Library Screening Results, E. faecium (fold increase in extracellular AK activity): 1.0
[2]; […]
  AK-based Prestwick Library Screening Results, S. aureus (fold increase in extracellular AK activity): 1.3
[3]; […]
  AK-based Prestwick Library Screening Results, K. pneumoniae (fold increase in extracellular AK activity): 1.1
[4]; […]
  AK-based Prestwick Library Screening Results, A. baumannii (fold increase in extracellular AK activity): 1.3
[5]; […]
  AK-based Prestwick Library Screening Results, P. aeruginosa (fold increase in extracellular AK activity): 1.0
[6]; […]
  AK-based Prestwick Library Screening Results, E. cloacae (fold increase in extracellular AK activity): 1.4
[7]; […]
  AK-based Prestwick Library Screening Results, E. coli (fold increase in extracellular AK activity): 1.3

## CC(=O)c1ccc(S(=O)(=O)NC(=O)NC2CCCCC2)cc1 [Acetohexamide]
[1]; [8]
  fold induction at 50 µM: 0.9
[2]; [9]
  fold induction at 50 µM: 1.1
[3]; [10]
  fold induction at 50 µM: 0.8
[4]; [11]
  fold induction at 50 µM: 1.1
[5]; [12]
  fold induction at 50 µM: 1.2
[6]; [13]
  fold induction at 50 µM: 1.7
[7]; [14]
  fold induction at 50 µM: 1.2

## CO[C@@H]1[C@@H](OC(N)=O)[C@@H](O)[C@H](Oc2ccc3c(O)c(NC(=O)c4ccc(O)c(CC=C(C)C)c4)c(=O)oc3c2C)OC1(C)C [Novobiocin sodium salt]
[1]; [15]
  fold induction at 50 µM: 1.5
[2]; [16]
  fold induction at 50 µM: 4.5
[3]; [17]
  fold induction at 50 µM: 0.7
[4]; [18]
  fold induction at 50 µM: 1.1
[5]; [19]
  fold induction at 50 µM: 1
[6]; [20]
  fold induction at 50 µM: 1.6
[7]; [21]
  fold induction at 50 µM: 3.2

## CC(C)(C)NCC(O)COc1cccc2c1CC(O)C(O)C2 (stereo not drawn) [Nadolol]
[1]; [15]
  fold induction at 50 µM: 0.9
[2]; [16]
  fold induction at 50 µM: 0.7
[3]; [17]
  fold induction at 50 µM: 0.6
[4]; [18]
  fold induction at 50 µM: 0.7
[5]; [19]
  fold induction at 50 µM: 0.6
[6]; [20]
  fold induction at 50 µM: 0.8
[7]; [21]
  fold induction at 50 µM: 0.8

## CCC(=O)[C@@]1(C)[C@H](C)C[C@H]2[C@@H]3CCC4=CC(=O)C=C[C@]4(C)[C@H]3[C@@H](O)C[C@@]21C [Rimexolone]
[1]; [22]
  fold induction at 50 µM: 0.9
[2]; [23]
  fold induction at 50 µM: 1.1
[3]; [24]
  fold induction at 50 µM: 0.8
[4]; [25]
  fold induction at 50 µM: 0.9
[5]; [26]
  fold induction at 50 µM: 1
[6]; [27]
  fold induction at 50 µM: 4.9
[7]; [28]
  fold induction at 50 µM: 0.9

## NS(=O)(=O)c1cc(Cl)c(Cl)c(S(N)(=O)=O)c1 [Dichlorphenamide]
[1]; [15]
  fold induction at 50 µM: 1.1
[2]; [16]
  fold induction at 50 µM: 0.5
[3]; [17]
  fold induction at 50 µM: 0.5
[4]; [18]
  fold induction at 50 µM: 0.5
[5]; [19]
  fold induction at 50 µM: 0.5
[6]; [20]
  fold induction at 50 µM: 0.5
[7]; [21]
  fold induction at 50 µM: 0.6

## O=C(O)c1cc(/N=N/c2ccc(S(=O)(=O)Nc3ccccn3)cc2)ccc1O [Sulfasalazine]
[1]; planktonic E. faecium, cutoff for positive-scoring molecules 3-fold increase, read-out: AK-based Prestwick Library Screening Results, E. faecium (increase in extracellular AK activity)
  fold induction at 50 µM: 0.9
[2]; planktonic S. aureus, cutoff for positive-scoring molecules 3-fold increase, read-out: AK-based Prestwick Library Screening Results, S. aureus (increase in extracellular AK activity)
  fold induction at 50 µM: 0.8
[3]; planktonic K. pneumoniae, cutoff for positive-scoring molecules 3-fold increase, read-out: AK-based Prestwick Library Screening Results, K. pneumoniae (increase in extracellular AK activity)
  fold induction at 50 µM: 0.7
[4]; planktonic A. baumannii, cutoff for positive-scoring molecules 3-fold increase, read-out: AK-based Prestwick Library Screening Results, A. baumannii (increase in extracellular AK activity)
  fold induction at 50 µM: 1.1
[5]; planktonic P. aeruginosa, cutoff for positive-scoring molecules 3-fold increase, read-out: AK-based Prestwick Library Screening Results, P. aeruginosa (increase in extracellular AK activity)
  fold induction at 50 µM: 0.8
[6]; planktonic E. cloacae, cutoff for positive-scoring molecules 3-fold increase, read-out: AK-based Prestwick Library Screening Results, E. cloacae (increase in extracellular AK activity)
  fold induction at 50 µM: 1.1
[7]; planktonic E. coli, cutoff for positive-scoring molecules 3-fold increase, read-out: AK-based Prestwick Library Screening Results, E. coli (increase in extracellular AK activity)
  fold induction at 50 µM: 0.8

## Butirosin disulfate salt
[1]; [29]
  AK-based Prestwick Library Screening Results, E. faecium (fold increase in extracellular AK activity): 0.8
[2]; [29]
  AK-based Prestwick Library Screening Results, S. aureus (fold increase in extracellular AK activity): 0.5
[3]; [29]
  AK-based Prestwick Library Screening Results, K. pneumoniae (fold increase in extracellular AK activity): 0.5
[4]; [29]
  AK-based Prestwick Library Screening Results, A. baumannii (fold increase in extracellular AK activity): 0.5
[5]; [29]
  AK-based Prestwick Library Screening Results, P. aeruginosa (fold increase in extracellular AK activity): 0.5
[6]; [29]
  AK-based Prestwick Library Screening Results, E. cloacae (fold increase in extracellular AK activity): 0.4
[7]; planktonic, […]
  AK-based Prestwick Library Screening Results, E. coli (fold increase in extracellular AK activity): 0.5

## C=C[C@H]1CN2CC[C@H]1C[C@H]2[C@H](O)c1ccnc2ccccc12 [(−)-Cinchonidine]
[1]; [30]
  AK-based Prestwick Library Screening Results, E. faecium (fold increase in extracellular AK activity): 1.0
[2]; [30]
  AK-based Prestwick Library Screening Results, S. aureus (fold increase in extracellular AK activity): 0.9
[3]; [30]
  AK-based Prestwick Library Screening Results, K. pneumoniae (fold increase in extracellular AK activity): 0.8
[4]; [30]
  AK-based Prestwick Library Screening Results, A. baumannii (fold increase in extracellular AK activity): 1.1
[5]; [30]
  AK-based Prestwick Library Screening Results, P. aeruginosa (fold increase in extracellular AK activity): 1.1
[6]; [30]
  AK-based Prestwick Library Screening Results, E. cloacae (fold increase in extracellular AK activity): 1.6
[7]; [30]
  AK-based Prestwick Library Screening Results, E. coli (fold increase in extracellular AK activity): 1.3

## O=C(CCNNC(=O)c1ccncc1)NCc1ccccc1 [Nialamide]
[1]; [22]
  fold induction at 50 µM: 1.1
[2]; [23]
  fold induction at 50 µM: 1.2
[3]; [24]
  fold induction at 50 µM: 0.9
[4]; [25]
  fold induction at 50 µM: 1
[5]; [26]
  fold induction at 50 µM: 1.2
[6]; [27]
  fold induction at 50 µM: 1.4
[7]; [28]
  fold induction at 50 µM: 1.2

## CN(C)CCn1nnnc1SCC1=C(C(=O)O)N2C(=O)[C@@H](NC(=O)Cc3csc(N)n3)[C@H]2SC1 [Cefotiam hydrochloride]
[1]; [8]
  fold induction at 50 µM: 0.9
[2]; [9]
  fold induction at 50 µM: 2.3
[3]; [10]
  fold induction at 50 µM: 7.8
[4]; [11]
  fold induction at 50 µM: 0.9
[5]; [12]
  fold induction at 50 µM: 0.6
[6]; [13]
  fold induction at 50 µM: 15.6
[7]; [14]
  fold induction at 50 µM: 23.9

## CCN1CCCC1CNC(=O)c1cc(S(N)(=O)=O)ccc1OC (stereo not drawn) [Sulpiride]
[1]; planktonic E. faecium, 384-well, […], read-out: AK-based Prestwick Library Screening Results: E. faecium (increase in extracellular AK activity)
  fold induction at 50 µM: 1
[2]; planktonic S. aureus, 384-well, […], read-out: AK-based Prestwick Library Screening Results: S. aureus (increase in extracellular AK activity)
  fold induction at 50 µM: 1.1
[3]; planktonic K. pneumoniae, 384-well, […], read-out: AK-based Prestwick Library Screening Results: K. pneumoniae (increase in extracellular AK activity)
  fold induction at 50 µM: 1
[4]; planktonic A. baumannii, 384-well, […], read-out: AK-based Prestwick Library Screening Results: A. baumannii (increase in extracellular AK activity)
  fold induction at 50 µM: 1
[5]; planktonic P. aeruginosa, 384-well, […], read-out: AK-based Prestwick Library Screening Results: P. aeruginosa (increase in extracellular AK activity)
  fold induction at 50 µM: 1.1
[6]; planktonic E. cloacae, 384-well, […], read-out: AK-based Prestwick Library Screening Results: E. cloacae (increase in extracellular AK activity)
  fold induction at 50 µM: 1.6
[7]; planktonic E. coli, 384-well, […], read-out: AK-based Prestwick Library Screening Results: E. coli (increase in extracellular AK activity)
  fold induction at 50 µM: 1
